# Assay results taken from US12036212B2, “Enhancement of tumor response to chemotherapy by activation of the asmase/ceramide pathway through timed administration of a short-acting anti-angiogenic agent” (Memorial Sloan-Kettering Cancer Center, priority 2014, dated 2024).
# Legend:
# ASMase = ASMase activity radioenzymatic assay in BAEC; type: cell-based, bovine
# Description: BAEC were established from the intima of bovine aorta as described^1. Stock cultures were grown in 100-mm dishes in Dulbecco's modified Eagle's medium (DMEM) supplemented with glucose (1 g/liter), 5% heat-inactivated calf serum (CS), penicillin (50 units/ml), and streptomycin (50 μg/ml). Purified human recombinant bFGF (1 ng/ml; R&D Systems, Inc., Minneapolis, MN) was added every other day during the exponential growth phase. […] These plateau phase cells were either used for experiments, or further sub-cultured (up to a maximum of 10 times) at a split ratio of 1:8. For sub-culturing, monolayers were dissociated with STV (0.05% trypsin and 0.02% EDTA in PBS) for 2-3 min at 22° C., washed twice in 5% CS-DMEM, and resuspended in DMEM with supplements as above. These mild conditions of trypsinization were sufficient to detach cells but not injure, stimulate, or affect cell function in a detectable way. BAEC were maintained at 37° C. in 10% CO2 humidified incubators.
# ASMase activity was quantified by radioenzymatic assay using [^14C-methylcholine]sphingomyelin (Amersham) as substrate as described (Schissel et al. J Biol Chem, 271, 18431-18436, 1996). Cell lysates were incubated with [^14C-methylcholine]-sphingomyelin substrate (0.026 mCi/9.5 nmol) in 250 mM sodium acetate, pH 5.0 supplemented with 0.1% Triton X-100 and 1 mM EDTA or 0.1 mM ZnCl. Reactions were terminated after 1 h with CHCl3:MeOH:1N HCl (100:100:1, v/v/v), and [^14C-methylcholine]phosphocholine product in the aqueous layer of the Folch extract was quantified using a Beckman Packard 2200 CA Tricarb scintillation counter. For detection of ASMase activity in patients, 10 μl of serum was used.
# To test the effect of chemotherapy on ASMase signaling and ceramide production, BAEC were treated with paclitaxel (100 nM) and ASMase activity was determined by radioenzymatic assay (Rotolo et al, infra) using [^14C-methylcholine] sphingomyelin (Amersham) as substrate (FIG. 1A). Induction of ASMase activity was observed within 5 minutes after treatment, and the activation continued for 30 minutes. Ceramide generation was monitored using the diacylglycerol kinase assay (Stancevic et al. PLoS ONE 8, e69025, 2013). […] In further support of this, pre-incubation of BAEC with nystatin prior to treatment with chemotherapy inhibits chemotherapy-induced apoptosis (FIG. 3).
# To determine the generality of the results observed, experiments were carried out using an additional endothelial cell line, human coronary artery endothelial cells (HCAEC); experiments were also performed using a different chemotherapeutic agent. […] Next, HCAEC were treated with paclitaxel (100 nM) (data not shown) and etoposide (50 μM) (FIG. 1F), and ceramide generation was evaluated.
# To further establish the generality of ASMase activation by various chemotherapeutic agents, BAEC and HCAEC were treated with increasing doses of cisplatin (0.1-50 μM) (data not shown). […] The ASMase/ceramide pathway was activated by chemotherapeutic agents that belong to different classes of chemotherapeutic agents, such as: taxanes, topoisomerase inhibitors, and nucleoside analog metabolic inhibitors. Since such chemotherapy agents are characterized by distinct mechanisms of action in tumor cells, it is surprising that a group of such distinct agents converges on a common molecular (ASMase/ceramide) axis in endothelium. The present confirmation that distinct chemotherapeutic agents activate the ASMase/ceramide pathway permits the present inventors to take into account the results of experiments using single dose radiotherapy, which has been reported to activate the same pathway (Rao, S. S. et al., Axitinib sensitization of high Single Dose Radiotherapy. Radiotherapy and Oncology: Journal of the European Society for Therapeutic Radiology and Oncology 111, 88-93, doi:10.1016/j.radonc.2014.02.010 (2014)).
# Gemcitabine was able to activate ASMase in cultured endothelial cells. […]
# MCA/129 fibrosarcomas = test: Endothelial apoptosis in vivo (TUNEL/MECA-32) in MCA/129 fibrosarcomas; set-up: species or system mice; conditions: gemcitabine 240 mg/kg
# Description: Human HCT-116 colon cancer cells and MCA/129 murine sarcoma cells were maintained in DMEM with 10% fetal bovine serum, with 100 u/ml penicillin and 100 μg/ml streptomycin. Cells were grown as monolayers in 75 cm^2 culture flasks at 37° C. in 10% CO2 humidified incubators. Cells were trypsinized, washed in PBS and diluted in Matrigel/PBS solution (40:60 v/v) for HCT-116 xenografts or in PBS for MCA/129 syngeneic tumor grafts. Cells (3×10^6 for HCT-116 or 1×10^6 for MCA129) were injected subcutaneously into the flanks of mice (Garcia-Barros et al. Science 300, 1155-1159, 2003).
# To evaluate acute endothelial apoptosis, tumors were grown in mice and treated with drugs as above. After the first treatment, tumors were harvested at specified times, placed into formalin overnight and paraffin-embedded the next day. Paraffin-embedded sections (5 μm) were co-stained for apoptotic endothelium using TUNEL and the endothelial-specific monoclonal antibody MECA-32 (Developmental Studies Hybridoma Bank, developed under the auspices of the NICHD and maintained by The University of Iowa, IA).
# Similar results were observed using MCA/129 murine fibrosarcoma tumors implanted in Sv129/Bl6^asmase+/+ mice. […] After 4 hours of treatment, tumors were harvested and endothelial cell apoptosis quantified.
# [1] = system: MCA/129 fibrosarcoma tumors; test: IVIM MRI of vascular perfusion in MCA/129 fibrosarcoma tumors; type: in vivo, mouse; conditions: gemcitabine 240 mg/kg i.p.
# Source text: IVIM DW-MRI was first described by Le Bihan et al. (MR imaging of intravoxel incoherent motions: application to diffusion and perfusion in neurologic disorders. Radiology 1986; 161: 401-407). The novelty of our approach lies in repeatedly acquiring IVIM data over time (e.g. “dynamic” IVIM) to monitor the acute effects of radiation (or chemotherapy), a strategy which has not been previously reported. No intravenous contrast administration is required, and IVIM parameters can be measured many times, allowing us to define kinetics of vascular dysfunction after radiation or chemotherapy. Other alternatives, such as DCE-MRI or ^15O-PET, would not serve our purpose as well: although they may be highly reflective of tissue vascularity they cannot be re-injected into a patient to serially monitor changes in vascularity over time. IVIM parameters including perfusion fraction (f), pseudo-diffusion coefficient (D*) and diffusion coefficient (D) were calculated for each lesion, using a biexponential signal decay model and incorporating a correction to account for differences in the T1 and T2 relaxation times of tissue and blood, respectively.
# Briefly, MCA/129 fibrosarcoma tumors were implanted in the rear mouse hip, and subjected to intravoxel incoherent motion (IVIM) MRI when tumors reached a size of 150-300 mm^3. […] Data (mean±SEM) are collated from 6 animals per group.
# [2] = system: advanced soft tissue sarcoma; test: Phase II trial of gemcitabine and docetaxel with bevacizumab, volumetric tumor response; type: in vivo, human
# Description: Patients with metastatic or locally-recurrent leiomyosarcoma, pleomorphic undifferentiated sarcoma, pleomorphic liposarcoma, rhabdomyosarcoma or angiosarcoma, were treated on a phase II trial of gemcitabine, docetaxel and bevacizumab. Initially the trial was a double-blind, placebo-controlled, randomized trial of gemcitabine and docetaxel with or without bevacizumab, which was modified to a single-arm, open-label, non-randomized study of gemcitabine, docetaxel and bevacizumab. The protocol was approved by the Institutional Review Board of Memorial-Sloan Kettering Cancer Center, and all patients provided written informed consent (Clinicaltrials.gov identifier NCT00887809).
# Initially, gemcitabine was administered immediately following bevacizumab.
# Volumetric measurement of tumors was performed on an exploratory basis as the original study was not designed or powered to specifically investigate the clinical application of timed anti-angiogenic therapy as a method of tumor chemosensitization. In light of the results from our animal studies, which were made part way through the clinical study period, volumetric measurements were proposed to more ideally facilitate comparison with our pre-clinical data. Furthermore, they likely provide a more meaningful assessment of tumor response than the RECIST based evaluation for soft tissue sarcoma. […] Baseline CT or MRI was used to identify a dominant target lesion for measurement. Follow-up scans were evaluated for best response. Tumor contours were defined manually and summed across all axial slices to calculate a total volume measurement. Tumor response was defined as at least a 30% reduction in tumor volume. Both a two-tailed Fisher's Exact Test and the Mann-Whitney Rank-Sum test were employed to evaluate significance in patient volumetric response rates at the first interval treatment scan (week 6) and at time of maximum treatment response.
# Patients enrolled in the trial had metastatic or recurrent leiomyosarcoma, pleomorphic undifferentiated sarcoma, pleomorphic liposarcoma, rhabdomyosarcoma or angiosarcoma (FIG. 7A).
# A total of 38 patients were treated. A subset of patients received placebo instead of bevacizumab. […] Baseline CT scan or MRI was used to identify a dominant target lesion for volumetric measurement, followed by volumetric assessment on initial post-treatment follow-up scan ([…]) and over the treatment course (representative CT time course of abdominal metastasis is shown in FIG. 7B showing regression of metastatic tumor).
# [3] = human, in vivo; cited from earlier work
Compound,"ASMase activation (ASMase; etoposide 50 μM, cisplatin 0.1-50 μM, gemcitabine 100 nM time-course)","Dose dependence of ASMase activation (ASMase; increasing doses of gemcitabine, 5 minutes)",Endothelial cell apoptosis (MCA/129 fibrosarcomas; Sv129/BL6 asmase+/+),Tumor cell apoptosis (MCA/129 fibrosarcomas),Time of peak vascularity and diffusion reduction after treatment [1] [min],Diffusion (D*) ([1]; over 1 hour),Vascularity (Fp) ([1]; over 1 hour),"Patients with >30% tumor reduction, initial follow-up scan ([2]; after two 3-week cycles, bevacizumab-gemcitabine 1-hour interval, 14 patients) [%]","Patients with significant tumor response (≥30% reduction in tumor volume), initial follow-up scan ([2]; after two 3-week cycles, immediate consecutive bevacizumab-gemcitabine, 16 patients) [%]","Patients with significant tumor response, best response ([2]; bevacizumab 15 mg/kg 1 hour prior to gemcitabine, docetaxel day 8, 14 patients) [%]","Patients with significant tumor response (>30% reduction in tumor volume), best response ([2]; bevacizumab 15 mg/kg immediately before gemcitabine, docetaxel day 8, 16 patients) [%]",Half-life (t1/2) [3] [days]
Nc1ccn([C@@H]2O[C@H](CO)[C@@H](O)C2(F)F)c(=O)n1 [gemcitabine],triggered rapid cellular activation of ASMase,dose-dependent manner,induced time-dependent endothelial cell apoptosis,did not cause tumor cell apoptosis,15 to 30,reduced in a reversible manner,reduced in a reversible manner,–,–,–,–,–
"bevacizumab: monoclonal antibody that targets circulating VEGF A, long-acting AAA",–,–,–,–,–,–,–,64,25,93,38,21
